Laboratory results: PMC12299847, “Macroalgae-Inspired Brominated Chalcones as Cosmetic Ingredients with the Potential to Target Skin Inflammaging” (Marine Drugs, 2025)

What was measured:
[1] = test system: NO production in LPS-stimulated RAW 264.7 macrophages; experiment: NO production (Griess assay) in LPS-stimulated macrophages; format: cell-based, murine; conditions: Mus musculus, RAW264.7, 24 h, RAW 264.7, LPS 100 ng/mL, Griess
Description: The anti-inflammatory potential of chalcones 1–7 was evaluated in macrophages cultured in the presence or absence (control) of LPS, as depicted in Figure 4. Under basal conditions (unstimulated, control), macrophages produce low levels of nitrites (≈12%). […] Each chalcone was tested at concentrations previously established as non-cytotoxic in macrophages, trying to ensure that observed changes in NO levels were not due to reduced cell viability.
The production of NO was evaluated by measuring nitrite accumulation in culture supernatants using the previously described Griess assay. Cells were seeded at a concentration of 5.0 × 10^4 cells/mL in a 96-well plate (200 μL/well) and allowed to stabilize overnight at 37 °C. Afterwards, the cells were treated with different concentrations of compound solutions and pre-incubated for 1 h at 37 °C. Subsequently, an LPS in PBS solution was added to each well, achieving a final concentration of 100 ng/mL, and the plate was left to incubate for 24 h. An amount of 150 μL of the cell culture supernatant was then transferred to a fresh 96-well plate, and an equal amount of Griess reagent [comprising a 1:1 mixture of 1% (w/v) sulphanilamide in 5% (v/v) phosphoric acid and 0.1% (w/v) naphthylethylenediaminedihydrochloride] was added. Following a 30 min incubation at room temperature in the dark, the absorbance was recorded at 550 nm using a Biotek Synergy HT plate reader (Biotek, CA, USA). The nitrite concentration in the supernatants was determined by comparing the absorbance of each sample to a sodium nitrite standard curve. The results, obtained from at least three independent experiments performed in duplicate, were expressed as a percentage of NO production by cells versus chemical concentration, relative to LPS condition (100%).
Figure 4 NO production by macrophages treated with LPS (100 ng/mL) or not (control) in the presence of chalcones 1–7. Results are expressed as a percentage of NO production by cells treated with LPS (100 ng/mL). Each value represents the mean ± SEM of four independent experiments in duplicate. Statistical analysis: one ANOVA with Dunnett’s multiple comparisons test, where p< 0.05 was considered significant. *** p < 0.005, relative to the control, and ^# p < 0.05, ^## p < 0.01, ^### p < 0.0005, and ^#### p < 0.0001, relative to LPS condition.

[2] = Resazurin cell viability assay in HaCaT keratinocytes; format: cell-based, human; conditions: human, HaCaT keratinocytes, resazurin, read-out: IC50 (cell viability, cytotoxicity)
Description: (§1) To evaluate the effects of chalcones 1–7 on cell viability after 24 h, a resazurin assay was performed using two cell lines: human HaCaT keratinocytes (HaCaT, CLS 300493), representing the epidermal layer, and murine RAW 264.7 macrophages (RAW 264.7, ATCC TIB-71), which model immune cells involved in dermal inflammatory responses. For the keratinocyte cell line, all seven brominated and non-brominated chalcones were tested across a concentration range from 2.5 μM to 125 μM (Figure 2).
(§2) Human keratinocytes (HaCaT, CLS 300493, Eppelheim, Germany) were cultured in DMEM supplemented with heat-inactivated FBS, and a penicillin and streptomycin antibiotic solution. The cell culture of keratinocytes was washed with 6 mL of phosphate buffer solution with 0.05% EDTA (Sigma-Aldrich, St. Louis, MO, USA) and detached using 3 mL of 0.05% trypsin + 0.02% EDTA in PBS solution when the cells reached 70–80% confluence in cell culture flasks. DMEM was also used to cultivate the mouse macrophage cell line (RAW 264.7, ATCC TIB-71, Manassas, VA, USA) together with 10% (v/v) non-inactivated FBS, 1.5 g/L sodium bicarbonate, and 100 U/mL penicillin and 100 μg/mL streptomycin stock (antibiotic solution). The macrophage culture was mechanically detached using a cell scraper, and the final amount of DMEM media with the cells was sub-cultured in a 1:10 ratio to the cellular suspension.
(§3) The resazurin reduction assay was employed to evaluate the metabolic activity of human epidermal keratinocyte (HaCaT) and murine macrophage (RAW264.7) cell lines, as outlined in a previous study. In brief, HaCaT cells (1.0 × 10^5 cells/mL) and RAW264.7 cells (5.0 × 10^4 cells/mL) were seeded in 96-well plates (200 μL/well) and incubated overnight at 37 °C to allow for cell attachment. Following this, the cells were treated with different concentrations of the test compounds and kept at 37 °C for 24 h. After 20 h, resazurin (500 μM in sterile phosphate buffer solution, pH 7.4) was added to each well to achieve a final concentration of 50 μM, followed by an additional incubation of 4 h. Absorbance was then measured at wavelengths of 570 and 620 nm using a SpectraMax Plus 384 absorbance microplate spectrophotometer (Molecular Devices, San Jose, CA, USA). Each experiment was conducted in triplicate, with a minimum of three independent assays. The results were graphically presented as the percentage of cell viability versus chemical concentration, relative to the control.
(§4) Figure 2 Cytotoxicity of chalcones 1–7 using a resazurin reduction assay in HaCaT cells by comparison with the control. Bar graphs represent the mean ± SEM of at least three independent experiments performed in triplicate. Statistical analysis: one ANOVA with Dunnett’s multiple comparisons test, where p < 0.05 was considered significant when compared to the control condition. * p < 0.05, ** p < 0.01, and *** p < 0.0005.

[3] = test system: HaCaT keratinocytes; experiment: as above; format: cell-based, human; conditions: HaCaT, 24 h; for cytotoxicity / impact on keratinocyte viability: at 2.5 μM and 7.5 μM
Description: as §1, §2, §3, §4

[4] = test system: RAW 264.7 macrophages; experiment: Resazurin cell viability assay in RAW 264.7 macrophages; format: cell-based, murine; conditions: RAW 264.7, 24 h
Description: as §1
To evaluate the cytotoxic effects of brominated and non-brominated chalcones 1–7 on macrophages, different concentration ranges were applied based on the response profiles previously observed for keratinocytes (Figure 3). […] For this set of chalcones, a similar tendency was observed: a lower cytotoxic characteristic of chalcone 4, which contained bromine atoms in both aromatic rings, compared to chalcones 5 (brominated in only the aromatic A ring) and 6 (non-brominated).
as §2
as §3, with “The results were graphically presented as the percentage of cell viability versus chemical concentration, relative to the control.” left out

Row | IC50 [1] | SMILES | IC50 at 24 h [2] | cytotoxicity / impact on keratinocyte viability [3] | concentration up to which acceptable levels of cytotoxicity were observed [4] | reduction in cellular viability ([3]; at 2.5 μM)
1 | 0.97 ± 0.22 µM | COc1cc(Br)cc(/C=C/C(=O)c2c(Br)c(Br)cc(OC)c2OC)c1OC [Chalcone 4] | 11.7 ± 1.34 µM | no significant impact | up to 7.5 μM | 
2 | 0.99 ± 0.54 µM | COc1cccc(/C=C/C(=O)c2c(Br)c(Br)cc(OC)c2OC)c1OC [Chalcone 5] | 30.4 ± 2.66 µM | no significant impact | up to 1 μM | 
3 | 5.95 ± 1.49 µM | COc1cccc(/C=C/C(=O)c2cccc(OC)c2OC)c1OC [Chalcone 6] | 14.7 ± 3.97 µM |  | up to 1 μM | ~25%
